Results as given in EP4814014A1, “BINDING MOLECULE AND ANTIBODY-DRUG CONJUGATE AND USE THEREOF” (priority 2023, dated 2025).

System: EBC-1
Test: Cell killing assay of ADCs (CCK8), EBC-1
Type: cell-based, human
Details: Table 10A; Target cell: EBC-1; 3-5 days
Protocol: Killing of target cells MDA-MB-468, EBC-1, and NCI-H1975 cells (Cell Bank of the Chinese Academy of Sciences) by the ADC molecules formed by conjugating the […] anti-EGFR/cMet antibody molecules described above to a toxin was assayed by the […].
The cells (100 µL, 1 × 10^4) resuspended in a cell culture medium were seeded into each well of a 96-well plate and cultured in an incubator at 37 °C with 5% CO2 overnight. The next day, 100 µL of serially diluted V-20-Fc-PEG-EVC-MMAE, V-23-Fc-PEG-EVC-MMAE, and V-26-Fc-PEG-EVC-MMAE, as well as positive control ADCs ABBV399 and AZD9592 were added to corresponding wells. The cells were cultured for another 3-5 days. Then, 20 µL of CCK8 (Shanghai Life iLab Biotech, Cat. No. AC11L054) was added to each well. The mixtures were cultured in an incubator at 37 °C with 5% CO2 until color development. The absorbance at 450 nm was recorded using a microplate reader (Molecular Device, SpectraMax M5).
The cell viability was calculated by the following formula: percentage cell viability = [(As - Ab) / (Ac - Ab)] × 100. As = experimental well absorbance (cells, culture medium, CCK8, and ADCs); Ab = blank well absorbance (culture medium and CCK8); Ac = control well absorbance (cells, culture medium, and CCK8).

ABBV399 [reference compound] showed an IC50 of 0.194 nM.
